Measurements as given in article PMC9453454, “Design, synthesis, and anticancer activity of three novel palbociclib derivatives” (Frontiers in Oncology, 2022).
Read-outs that look alike come from different tables or passages of the source.

Key:
[1] = tested on: Cyclin D, CDK4, CDK6, Rb, and p-Rb; assay: Western blot of Cyclin D-CDK4/6-Rb pathway proteins in NCI-H460; assay type: cell-based, human; conditions: NCI-H460, 0, 0.5, 1, 2 μM for 24 h
Experimental: (§1) NCI-H460 cells were harvested in logarithmic growth phase and seeded into six-well plates at a density of 5.0 × 10^3 cells/well. After being incubated for 48 h, the cells were harvested with 0.25% Trypsin after exposed to various concentrations of HP-1 (0, 0.5, 1, 2 μM), 10-HCPT (2 μM), and pabocini (2 μM) for 24 h.Then, precooled radio-immunoprecipitation assay (RIPA) lysates [10 mM Tris–HCl, 1 mM EDTA, 1% sodium dodecyl sulfate (SDS), 1 mM dithiothreitol (DTT), 0.1 mM phenylmethylsulfonyl fluoride (PMSF), protease inhibitors, 1% Nonidet P-40, pH 8] were added to them and placed on ice to lyse the cells for 30 min. After centrifugation at 10,000 rpm and 4°C for 10 min, the supernatant was collected to obtain soluble proteins. Lysates were centrifuged at 10,000 rpm for 20 min at 4°C, and the supernatant was collected.
(§2) The absorbance value was measured at 562 nm using a microplate analyzer to calculate the protein content. An equal amount of protein was separated by 10% SDS–polyacrylamide gel electrophoresis (SDS-PAGE) gels and transferred onto PVDF membrane. […] Finally, the membrane was placed on the membrane carrier plate, and the bands were detected with enhanced chemiluminescence reagent to indicate the protein expression.

[2] = tested on: MDA-MB-231 cells; assay: MTT in vitro cytotoxicity, MDA-MB-231; assay type: cell-based, human
Experimental: (§3) Human lung cancer cells (NCI-H460, NCI-H1299, and A549), human breast cancer cells (MDA-MB-231, MDA-MB-453, and MCF-7), human liver cancer cells (Huh-7 and HepG2), human colon cancer cells (coca-2, HT-29, and HCT116), human cervical cancer cells (HeLa), human normal lung cells (BEAS-2B), and human normal […] (MCF-10) were from the State Key Laboratory of Pharmaceutical Biotechnology, Nanjing University. NCI-H460 were cultured in 1640 medium containing 10% fetal bovine serum (FBS). MDA-MB-231 were cultured in L15 medium containing 10% FBS without CO2, and other cell lines were cultured in DMEM medium containing 10% FBS CO2 in the incubator.
(§4) MTT assay was used to identify 14 different cell lines (human lung cancer cells NCI-H460, NCI-H1299, and A549; human breast cancer cells MDA-MB-231, MDA-MB-453, and MCF-7; human liver cancer cells Huh-7 and HepG2; human colon cancer cells coca-2, HT-29, and HCT116; and human cervical cancer cells HeLa) and 2 kinds of normal cell lines (human normal lung epithelial cells BEAS-2B, human normal breast epithelial cells MCF10-A) for quantitative analysis ([15]). In addition, 10-HCPT and palbociclib were used as positive control.
(§5) Cells were harvested during the logarithmic growth phase and seeded into 96-well plates at a density of 2.0×10^3 cells/well. After being incubated for 24 h, the cells were treated with different concentrations of various culture programs for 48 h. Afterwards, 20 μl of MTT solution (5 mg/ml) was added to each well, and the cells were incubated in a 5% CO2 atmosphere at 37°C for another 4 h. Then, the supernatant was discarded, and the formazan crystals were dissolved in 150 μl DMSO. Subsequently, the absorbance was measured at 570 nm via a Tecan microplate reader. The concentration that caused 50% inhibition of cell viability (IC50) values was calculated by GraphPad Software. Triplicate experiments were performed in parallel for each concentration, and the results are shown as the mean ± SD. The inhibitory ratio was calculated using the following formula: inhibitory ratio (%) = [1−(mean absorbance of experiment group)/(mean absorbance of control group)] × 100.

[3] = tested on: HepG2 cells; assay: MTT in vitro cytotoxicity, HepG2; assay type: cell-based, human
Experimental: as §3, §4, §5

[4] = tested on: MCF-7 cells; assay: MTT in vitro cytotoxicity, MCF-7; assay type: cell-based, human
Experimental: as §3, §4, §5

[5] = tested on: A549 cells; assay: MTT in vitro cytotoxicity, A549; assay type: cell-based, human
Experimental: as §3, §4, §5

[6] = tested on: MCF10-A cells; assay: MTT in vitro cytotoxicity, MCF10-A normal breast epithelial cells; assay type: cell-based, human; conditions: MCF-10A, 48 h
Experimental: as §3, §4, §5

[7] = tested on: HT-29 cells; assay: MTT in vitro cytotoxicity, HT-29; assay type: cell-based, human
Experimental: as §3, §4, §5

[8] = tested on: NCI-H460 cells; assay: MTT in vitro cytotoxicity, NCI-H460; assay type: cell-based, human
Experimental: as §3, §4, §5

[9] = tested on: Coca-2 cells; assay: MTT in vitro cytotoxicity, Coca-2; assay type: cell-based, human; conditions: 48 h
Experimental: as §3, §4, §5

[10] = tested on: Huh-7 cells; assay: MTT in vitro cytotoxicity, Huh-7; assay type: cell-based, human
Experimental: as §3, §4, §5

[11] = tested on: HCT116 cells; assay: MTT in vitro cytotoxicity, HCT116; assay type: cell-based, human
Experimental: as §3, §4, §5

[12] = tested on: MDA-MB-453 cells; assay: MTT in vitro cytotoxicity, MDA-MB-453; assay type: cell-based, human
Experimental: as §3, §4, §5

[13] = tested on: Hela cells; assay: MTT in vitro cytotoxicity, Hela; assay type: cell-based, human; conditions: 48 h
Experimental: as §3, §4, §5

[14] = tested on: NCI-H460 cells; assay: Annexin V/PI apoptosis by flow cytometry, NCI-H460; assay type: cell-based, human; conditions: same concentration (not given)
Experimental: NCI-H460 cells were harvested in logarithmic growth phase and seeded into six-well plates at a density of 5.0 × 10^3 cells/well. After being incubated for 24 h, the cells were harvested with 0.25% Trypsin after exposed to various culture programs, washed with PBS, and re-suspended in 500 μl binding buffer. The experiment was triply replicated. Then, the cells were stained by adding to 5 μl Annexin V-FITC and 5 μl PI for15 min at 25°C in the dark. Finally, the cells were detected and analyzed using a flow cytometer with FlowJo 7.6.1.

[15] = tested on: NCI-H1299 cells; assay: MTT in vitro cytotoxicity, NCI-H1299; assay type: cell-based, human
Experimental: as §3, §4, §5

[16] = tested on: BEAS-2B cells; assay: MTT in vitro cytotoxicity, BEAS-2B normal lung epithelial cells; assay type: cell-based, human; conditions: 48 h
Experimental: as §3, §4, §5

[17] = tested on: PI3K, AKT, p-PI3K, and p-AKT; assay: Western blot of PI3K/AKT pathway-related proteins in NCI-H460; assay type: cell-based, human; conditions: NCI-H460, 0, 0.5, 1, 2 μM for 24 h
Experimental: as §1, §2

[18] = MDA-MB-231 human breast cancer cells, MTT, 48 h, read-out: IC50
[19] = HepG2 human liver cancer cells, MTT, 48 h, read-out: IC50
[20] = MCF7, MCF-7 human breast cancer cells, MTT, 48 h, read-out: IC50
[21] = A549 human lung cancer cells, MTT, 48 h, read-out: IC50
[22] = MCF10-A human normal breast epithelial cells, MTT, read-out: IC50
[23] = HT-29 human colon cancer cells, MTT, 48 h, read-out: IC50
[24] = NCI-H460 human lung cancer cells, MTT, 48 h, read-out: IC50
[25] = Coca-2 human colon cancer cells, MTT, read-out: IC50
[26] = Huh-7 human liver cancer cells, MTT, 48 h, read-out: IC50
[27] = HCT-116, HCT116 human colon cancer cells, MTT, 48 h, read-out: IC50
[28] = MDA-MB-453 human breast cancer cells, MTT, 48 h, read-out: IC50
[29] = Hela human cervical cancer cells, MTT, read-out: IC50
[30] = NCI-H1299 human lung cancer cells, MTT, 48 h, read-out: IC50
[31] = BEAS-2B human normal lung epithelial cells, MTT, read-out: IC50

With `CC[C@]1(O)C(=O)OCc2c1cc1n(c2=O)Cc2cc3cc(OC(=O)CCCC(=O)N4CCN(c5ccc(Nc6ncc7c(C)c(C(C)=O)c(=O)n(C8CCCC8)c7n6)nc5)CC4)ccc3nc2-1` [HP-1, (R)-4-ethyl-4-hydroxy-3,14-dioxo-3,4,12,14-tetrahydro-1H-pyrano[3’,4’:6,7] indolizino[1,2-b]quinolin-9-yl5-(4-(6-((6-acetyl-8-cyclopentyl-5-methyl-7-oxo-7,8-dihydropyrido[2,3-d]pyrimidin-2-yl)amino)pyridin-3-yl)piperazin-1-yl)-5-oxopentanoate] the “Protein expressions of Cyclin D, CDK4, CDK6, Rb, and p-Rb” value [1] was “significantly decreased”, the IC50 [2, 18] was 15.3 ± 2.51 µM and the IC50 [3, 19] was 2.57 ± 0.42 µM. It also gave an IC50 [4, 20] of 10.3 ± 1.68 µM, an IC50 [5, 21] of 3.41 ± 0.22 µM and an IC50 [6, 22] of 32.4 ± 1.33 µM. The IC50 [7, 23] was 12.4 ± 1.62 µM, the IC50 [8, 24] was 0.96 ± 0.01 µM and the IC50 [9, 25] was 15.2 ± 0.54 µM. For the same compound, the IC50 [10, 26] was 9.48 ± 1.59 µM, the IC50 [11, 27] was 17.1 ± 0.31 µM and the IC50 [12, 28] was 5.28 ± 0.81 µM. For the same compound, the IC50 [13, 29] was 5.46 ± 0.08 µM, the “Q1 (annexin V/PI quadrant)” value ([14]; NCI-H460, 12h) was 0.32 and the “Q2 (annexin V/PI quadrant)” value ([14]; NCI-H460, 12h) was 9.93. For the same compound, the “Q3 (annexin V/PI quadrant)” value ([14]; NCI-H460, 12h) was 13.4, the “Q4 (annexin V/PI quadrant)” value ([14]; NCI-H460, 12h) was 76.4 and the “Q1 (annexin V/PI quadrant)” value ([14]; NCI-H460, 24h) was 0.80. For the same compound, the “Q2 (annexin V/PI quadrant)” value ([14]; NCI-H460, 24h) was 33.7, the “Q3 (annexin V/PI quadrant)” value ([14]; NCI-H460, 24h) was 31.4 and the “Q4 (annexin V/PI quadrant)” value ([14]; NCI-H460, 24h) was 34.0. The “Q1 (annexin V/PI quadrant)” value ([14]; NCI-H460, 36h) was 0.66, the “Q2 (annexin V/PI quadrant)” value ([14]; NCI-H460, 36h) was 61.8 and the “Q3 (annexin V/PI quadrant)” value ([14]; NCI-H460, 36h) was 33.6. For the same compound, the “Q4 (annexin V/PI quadrant)” value ([14]; NCI-H460, 36h) was 3.91, the melting point was 44.5 to 46.4 °C and the IC50 [15, 30] was 2.29 ± 0.02 µM. For the same compound, the IC50 [16, 31] was 36.4 ± 0.43 µM and the “expression of PI3K, AKT, p-PI3K, and p-AKT” value [17] was “decreased”.

With `CC[C@@]1(O)C(=O)OCc2c1cc1n(c2=O)Cc2cc3cc(O)ccc3nc2-1` [10-HCPT, 10-hydroxycamptothecin, reference compound] the IC50 ([2]; Homo sapiens, MDA-MB-231, 48 h) was 15.5 ± 1.07 µM, the IC50 ([3]; Homo sapiens, HepG2, 48 h) was 2.45 ± 0.27 µM and the IC50 ([4]; Homo sapiens, MCF7, 48 h) was 13.2 ± 0.31 µM. It also gave an IC50 ([5]; Homo sapiens, A549, 48 h) of 4.14 ± 0.03 µM, an IC50 ([6]; Homo sapiens) of 20.3 ± 0.59 µM and an IC50 ([7]; Homo sapiens, HT-29, 48 h) of 4.61 ± 0.19 µM. It also gave an IC50 ([8]; Homo sapiens, NCI-H460, 48 h) of 1.96 ± 0.01 µM, an IC50 ([9]; Homo sapiens) of 13.4 ± 0.34 µM and an IC50 ([10]; Homo sapiens, Huh-7, 48 h) of 7.69 ± 0.84 µM. The IC50 ([11]; Homo sapiens, HCT-116, 48 h) was 10.4 ± 0.7 µM, the IC50 ([12]; Homo sapiens, MDA-MB-453, 48 h) was 5.73 ± 0.62 µM and the IC50 ([13]; Homo sapiens, HeLa) was 6.54 ± 0.07 µM. It also gave an IC50 ([15]; Homo sapiens, NCI-H1299, 48 h) of 3.39 ± 0.16 µM and an IC50 ([16]; Homo sapiens, BEAS-2B) of 7.05 ± 0.52 µM.

Work on `CC(=O)c1c(C)c2cnc(Nc3ccc(N4CCNCC4)cn3)nc2n(C2CCCC2)c1=O` [Palbociclib] yielded an IC50 [2, 18] of 11.7 ± 1.75 µM, an IC50 [3, 19] of 7.55 ± 1.49 µM and an IC50 [4, 20] of 8.73 ± 0.33 µM. The IC50 [5, 21] was 6.16 ± 0.19 µM, the IC50 [6, 22] was 39.7 ± 0.57 µM and the IC50 [7, 23] was 16.8 ± 0.39 µM. The IC50 [8, 24] was 2.95 ± 0.11 µM, the IC50 [9, 25] was 35.9 ± 0.41 µM and the IC50 [10, 26] was 32.1 ± 1.93 µM. The IC50 [11, 27] was 31.6 ± 1.21 µM, the IC50 [12, 28] was 5.15 ± 1.04 µM and the IC50 [13, 29] was 21.35 ± 0.13 µM. For the same compound, the IC50 [15, 30] was 5.09 ± 0.24 µM and the IC50 [16, 31] was 38.8 ± 0.59 µM.
